Measured values: patent US20050119188A1, “Method of treating breast cancer” (priority 2003, published 2005)
Like-named read-outs stand apart in the source and are kept apart here.

How the values were obtained:
[1] = tested on: MCF-7 breast tumor xenografts; assay: Estrogen-stimulated MCF-7 breast tumor xenograft growth in vivo, FTI plus Tamoxifen; design: species or system athymic nude mice
Procedure: (§1) Growth Studies in vivo. Female ovariectomized athymic nude mice were obtained from Charles River Laboratories (Worcester, Mass.). Androstenedione (Δ4A) pellets (25 mg and 15 mg, 90-day slow release) and 17β-estradiol (E2) pellets (0.72 mg, 60-day slow release) were from Innovative Research of America (Saratoga, Fla.). Anastrozole and Letrozole were obtained from Sequoia Research Products, Oxford, United Kingdom) and Tamoxifen was from Sigma Chemical Company.
(§2) MCF-7 breast tumor growth was performed as described previously (Osborne et al., 1995, J. Natl Cancer Inst., 87, 746-750) with minor modifications. To determine the effect of combined FTI plus Tamoxifen on the growth of MCF-7 breast tumor xenografts, 5.0×10^6 MCF-7 cells were inoculated into the right flank of the animals in 100 μl of Matrigel. Animals had been implanted with a 0.72 mg, 60-day pellet the previous day. Fourteen days after cell inoculation, the animals were grouped for treatment with: • 1) Vehicle • 2) Tamoxifen (25 mpk, p.o., q.d.) • 3) FTI (20 mpk, p.o., b.i.d.) • 4) FTI (40 mpk, p.o., b.i.d.) • 5) FTI (20 mpk, p.o., b.i.d.)+Tamoxifen (25 mpk, p.o., q.d.) • 6) FTI (40 mpk, p.o., b.i.d.)+Tamoxifen (25 mpk, p.o., q.d.)
(§3) Treatment was continued for 28 days and tumor volumes were measured twice a week with calipers as described above.

[2] = tested on: MCF-7arom breast tumor xenografts; assay: MCF-7arom breast tumor xenograft growth in vivo, FTI plus Tamoxifen; design: species or system athymic nude mice; settings: Day 10 of treatment
Procedure: as §1
as §2, with “To” for “MCF-7 breast tumor growth was performed as described previously (Osborne et al., 1995, J. Natl Cancer Inst., 87, 746-750) with minor modifications. To”, “MCF-7arom” for “MCF-7”, “5×10^6 MCF-7arom” for “5.0×10^6 MCF-7”, “15” for “0.72”, “90-day Δ4A” for “60-day”, “grouped (n=10)” for “grouped”
as §3

MCF-7 cells = assay: Growth studies in vitro: estrogen-stimulated MCF-7 cell proliferation (CellTiter-Glo luminescent viability assay); format: cell-based, human; settings: for inhibition at 0.1 µM: read-out: inhibited cell proliferation; for IC50: single agent, E2 (1 nM)-stimulated MCF-7 cells, Day 6, read-out: IC50 value, inhibition of MCF-7 cell growth
Procedure: Cell lines. MCF-7 cells were provided from Dr. A. Brodie (University of Maryland School of Medicine, Baltimore, Md.) and cultured in DMEM supplemented with 5% fetal bovine serum (FBS) and 1% penicillin/streptomycin (P/S). MCF-7arom cells were provided from Dr. S. Chen (Beckman Research Institute of the City of Hope, Duarte, Calif.) and cultured in DMEM supplemented with 5% FBS and 750 μg/ml geneticin.
Growth studies in vitro. Six days prior to plating in 96-well plates, MCF-7 cells growing in T-75 flasks (30-50% confluent) were washed extensively with phenyl red-free DPBS and transferred to estrogen-depleted medium. Estrogen-depleted medium was phenyl red-free DMEM/F-12 containing 10% heat-treated and dextran-coated charcoal-treated fetal bovine serum and 1% penicillin/streptomycin solution. Estrogen depleted media was refreshed 3 days prior to plating. On Day 0, cells were seeded (1,200 cells/well) into 96-well plates in estrogen-depleted medium and allowed to attach. On Day 1 the media was aspirated and replaced in 6-well replicates with estrogen-depleted medium supplemented with E2 (1 nM), and 4-OH Tamoxifen (Sigma Chemical Company, St Louis, Mo. in the range 10 nM-10 μM), or Fulvestrant (Tocris, Ellisville, Mo. in the range 10 nM-1.0 μM), FTI (in the range 10 nM-10 μM), and a combination of the antiestrogens and FTI. Media containing drugs was refreshed on Day 3. The effects of treatment on cell proliferation were determined on Day 6 using the CellTiter-Glo luminescent viability assay (Promega Corp., Madison, Wis.).

[3] = tested on: MCF-7arom breast tumor xenografts; assay: MCF-7arom breast tumor xenograft growth in vivo, FTI plus Anastrozole; design: species or system athymic nude mice; settings: for induction of tumor regression / tumor regression: 28 days; for inhibited tumor growth compared to vehicle-treated animals: 28 days of treatment
Procedure: as §1
MCF-7arom breast tumor growth was performed as described previously (Lu et al., 1999, Breast Cancer Res. Treat., 57, 183-192; Long et al., 2002, Clin Cancer Res., 8, 2378-2388) with minor modifications. To determine the effect of combined FTI plus Anastrozole on the growth of MCF-7arom breast tumor xenografts, 2.5×10^6 MCF-7arom cells were inoculated into the right flank of the animals in 100 μl of Matrigel (BD Biosciences, Bedford, Mass.). Animals had been implanted with a 25 mg, 90-day Δ4A pellet the previous day. Fourteen days after cell inoculation, the animals were grouped (n=10) for treatment with: • 1) Vehicle • 2) Anastrozole (5 mg per kg [mpk], orally [p.o.], twice a day [b.i.d.]) • 3) FTI (20 mpk, p.o., b.i.d.) • 4) FTI (40 mpk, p.o., b.i.d.) • 5) FTI (60 mpk, p.o., b.i.d.) • 6) FTI (20 mpk, p.o., b.i.d.)+Anastrozole (5 mpk, p.o., b.i.d.) • 7) FTI (40 mpk, p.o., b.i.d.)+Anastrozole (5 mpk, p.o., b.i.d.) • 8) FTI (60 mpk, p.o., b.i.d.)+Anastrozole (5 mpk, p.o., b.i.d.)
Treatment was continued for 28 days and tumor volumes were measured twice a week with calipers. Tumor volumes and animal body weights were recorded using LABCAT (Innovative Programming Associates Inc., Princeton, N.J.). Tumor volumes were calculated by the formula (w×l×h)/2.

[4] = tested on: MCF-7arom breast tumor xenografts; assay: MCF-7arom breast tumor xenograft growth in vivo, FTI plus Letrozole; design: species or system athymic nude mice; settings: Day 10 of treatment
Procedure: as §1
To determine the effect of combined FTI plus Letrozole on the growth of MCF-7arom breast tumor xenografts, 5×10^6 MCF-7arom cells were inoculated into the right flank of the animals in 100 μl of Matrigel. Animals had been implanted with a 15 mg, 90-day Δ4A pellet the previous day. Fourteen days after cell inoculation, the animals were grouped (n=10) for treatment with: • 1) Vehicle • 2) Letrozole (2.5 mpk, p.o., once a day [q.d.]) • 3) FTI (20 mpk, p.o., b.i.d.) • 4) FTI (40 mpk, p.o., b.i.d.) • 5) FTI (20 mpk, p.o., b.i.d.)+Letrozole (2.5 mpk, p.o., q.d.) • 6) FTI (40 mpk, p.o., b.i.d.)+Letrozole (2.5 mpk, p.o., q.d.)
as §3

Q: What does the source list for `CC/C(=C(\c1ccccc1)c1ccc(OCCN(C)C)cc1)c1ccccc1` [Tamoxifen, reference compound]?
A: inhibited tumor growth ([1]; Tamoxifen 25 mpk q.d., 14 days of treatment): 29%; inhibited tumor growth ([2]; Tamoxifen 25 mpk p.o. q.d.): 22%

Q: With `C[C@]12CC[C@@H]3c4ccc(O)cc4C[C@@H](CCCCCCCCC[S+]([O-])CCCC(F)(F)C(F)(F)F)[C@H]3[C@@H]1CC[C@@H]2O` (stereo partly shown) [Fulvestrant, reference compound] as the molecule, how does the inhibition at 0.1 µM (MCF-7 cells; Homo sapiens, MCF7, single-agent Fulvestrant 0.1 μM (FIG. 2)) read?
A: The inhibition at 0.1 µM was 53%.

Q: For `CC(C)(C#N)c1cc(Cn2cncn2)cc(C(C)(C)C#N)c1` [Anastrozole, reference compound], which “induction of tumor regression” value ([3]; Anastrozole 5 mpk b.i.d.) is on record?
A: The value was “did not induce tumor regression”.

Q: And the “inhibited tumor growth compared to vehicle-treated animals” value ([3]; Anastrozole 5 mpk p.o. b.i.d.)?
A: The value was 62%.

Q: Which results are given for `NC(=O)N1CCC(CC(=O)N2CCC([C@H]3c4ncc(Br)cc4CCc4cc(Cl)cc(Br)c43)CC2)CC1` [FTI]?
A: tumor regression, % of initial starting volume ([1]; single-agent FTI 40 mpk b.i.d., Day 14 of treatment): 57%; IC50 (MCF-7 cells; Homo sapiens, MCF7, 144 h): 40 nM; inhibition at 0.1 µM (MCF-7 cells; Homo sapiens, MCF7, single-agent FTI 0.1 μM, 4-OH Tamoxifen experiment (FIG. 1)): 56%; inhibition at 0.1 µM (MCF-7 cells; Homo sapiens, MCF7, single-agent FTI 0.1 μM, Fulvestrant experiment (FIG. 2)): 43%; inhibited tumor growth ([2]; FTI 40 mpk p.o. b.i.d.): 16%; induction of tumor regression ([3]; FTI 20 mpk b.i.d.): did not induce tumor regression; inhibited tumor growth compared to vehicle-treated animals ([3]; FTI 20 mpk p.o. b.i.d.): 56%; tumor regression ([3]; single-agent FTI 40 mpk b.i.d.): 16%; tumor regression ([3]; single-agent FTI 60 mpk b.i.d.): 40%; inhibited tumor growth ([4]; FTI 40 mpk p.o. b.i.d.): 16%

Q: Which results are given for `CC/C(=C(\c1ccc(O)cc1)c1ccc(OCCN(C)C)cc1)c1ccccc1` [4-OH Tamoxifen, reference compound]?
A: IC50 (MCF-7 cells): 450 nM; inhibited cell proliferation (MCF-7 cells; single-agent 4-OH Tamoxifen 1.0 μM (FIG. 1)): 55%

Q: With `N#Cc1ccc(C(c2ccc(C#N)cc2)n2cncn2)cc1` [Letrozole] as the molecule, how does the inhibited tumor growth ([4]; Letrozole 2.5 mpk p.o. q.d.) read?
A: The inhibited tumor growth was 127%.

Q: What about the tumor regression ([4]; Letrozole 2.5 mpk p.o. q.d.) of the same molecule?
A: Its tumor regression is 25%.
